Test results reported in patent US20230058623A1, “NOVEL HETEROARYL-TRIAZOLE COMPOUNDS AS PESTICIDES” (Bayer Aktiengesellschaft, priority 2019, published 2023).

Experiments:
Assay type in all cases: in vivo
[1] = test system: adult flies Musca domestica strain WHO-N; assay: Musca domestica test (MUSCDO surface treatment & contact assay); conditions: 24 hours after contact, read-out: efficacy (mortality); for mortality at 20 mg/m2: surface concentration 20 mg/m^2, exposure 30 minutes
How it was run: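 Compound dissolved at 2 mg/ml in acetone with 2000 ppm RME, applied to glazed tile and dried; adult flies exposed on the surface for 30 min. Percent mortality scored 24 h after contact.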

[2] = test system: adult mosquitoes Anopheles funestus strain FUMOZ-R; assay: Anopheles funestus test (ANPHFU surface treatment & contact assay); conditions: surface concentration 20 mg/m^2, exposure 30 minutes, 24 hours after contact, read-out: efficacy (mortality)
Protocol: Anopheles funestus Test (ANPHFU Surface Treatment & Contact Assay)
Solvent: Aceton+2000 ppm rapeseed oil methyl ester (RME)
In order to produce a sufficient, active ingredient containing solution it is necessary to solve the test compound in the solvent-mix (acetone at 2 mg/ml/RME 2000 ppm). This solution is pipetted onto a glazed tile and after evaporation of the acetone, adult mosquitoes of the species Anopheles funestus strain FUMOZ-R (Hunt et al., Med. Vet. Entomol. 2005 September; 19(3): 271-275) are placed onto the dried surface. The exposure time is 30 minutes.
Mortality in percent (%) is determined 24 hours after contact of the insects to the treated surface. 100% mortality means that all tested insects are dead, whereas 0% means that no insect died.

[3] = test system: adult engorged female ticks (Rhipicephalus microplus); assay: Rhipicephalus (Boophilus) microplus injection test; conditions: 168 h, application rate 4 μg/tick, egg deposition after 7 days, read-out: activity (efficacy: infertile eggs)
How it was run: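 Compound in DMSO (10 mg per 0.5 mL, then diluted with DMSO to test concentration); 1 μL injected into the abdomen of each of five engorged females, then held in a climate chamber. Fertile egg deposition checked at 7 days; efficacy 100% = all eggs infertile, 0% = all fertile.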

[4] = test system: green peach aphid (Myzus persicae); assay: Myzus persicae spray test; conditions: foliar, 120 h, after 5 days, Chinese cabbage leaf disks; for mortality at 500 g/ha: application rate 500 g/ha; for mortality at 100 g/ha: application rate 100 g/ha, read-out: activity (mortality)
How it was run: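 Percent kill was recorded 5 days after spraying. Test solutions, prepared with solvent and diluted in 1000 ppm emulsifier water, were applied to Brassica pekinensis leaf disks carrying mixed-instar green peach aphids.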

[5] = test system: adult unfed cat fleas (Ctenocephalides felis); assay: Ctenocephalides felis oral test; conditions: 48 h, read-out: activity (mortality)
Protocol: Ctenocephalides felis—Oral Test
Solvent: dimethyl sulfoxide
To produce a suitable preparation of active compound, 10 mg of active compound are dissolved in 0.5 mL solvent, and the concentrate is diluted with citrated cattle blood to the desired concentration.
Approximately 20 adult unfed cat fleas (Ctenocephalides felis) are placed in a flea chamber whose top and bottom is covered with gauze. A chamber whose bottom is sealed with parafilm, is filled with the blood-compound solution and placed on top of the flea chamber, so that the fleas can suck the blood. The blood chamber is heated to 37° C. whereas the flea chamber is kept at room temperature.
After 2 days mortality in % is determined. 100% means all the fleas have been killed; 0% means none of the fleas have been killed.

[6] = test system: larvae of the banded cucumber beetle (Diabrotica balteata); assay: Diabrotica balteata spray test; conditions: 168 h, after 7 days, wheat seeds, read-out: activity (efficacy: seedlings grown); for pest or weed control at 32 µg/disc, 100 g/ha: application rate 100 g/ha (=32 μg/well)
How it was run: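 Efficacy (%) read 7 days after infesting treated seedlings with 10-20 banded cucumber beetle larvae, 100% meaning growth as in uninfected untreated control and 0% no growth. Test solutions in water containing 1000 ppm emulsifier were sprayed onto wheat seeds germinated for 1 day on agar.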

[7] = test system: larvae of the southern green stink bug (Nezara viridula); assay: Nezara viridula spray test; conditions: 96 h, after 4 days, barley plants; for mortality at 500 g/ha: application rate 500 g/ha, read-out: activity (mortality); for mortality at 100 g/ha: application rate 100 g/ha
How it was run: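 Barley plants sprayed with the active compound in emulsifier-containing water, then infested with stink bug larvae. Mortality scored in % after 4 days, with 100% meaning all insects killed.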

[8] = test system: fall armyworm larvae (Spodoptera frugiperda); assay: Spodoptera frugiperda spray test; conditions: 168 h, application rate 100 g/ha, after 7 days, maize leaf sections
How it was run: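 Percent larval kill read at day 7 on Zea mays leaf pieces that were spray-treated and, after drying, infested. Spray preparations made by dilution with emulsifier-containing water (1000 ppm).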

[9] = test system: green peach aphid (Myzus persicae); assay: Myzus persicae oral test; conditions: 120 h, read-out: activity (mortality)
How it was run: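 Aphids of mixed population ingest the compound preparation by sucking through a parafilm sheet stretched over wells holding test solution plus IPL41 insect medium (33%+15% sugar). Kill rate in percent is determined five days later.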

[10] = test system: brown planthopper (Nilaparvata lugens); assay: Nilaparvata lugens spray test; conditions: 96 h, after 4 days, rice plants; for mortality at 100 g/ha: application rate 100 g/ha; for mortality at 500 g/ha: application rate 500 g/ha
Protocol: Nilaparvata lugens—Spray Test
To produce a suitable preparation of active compound, 1 part by weight of active compound is mixed with the stated amount of solvents and is diluted with water, containing an emulsifier concentration of 1000 ppm, to the desired concentration. Further test concentrations are prepared by dilution with emulsifier containing water.
Rice plants (Oryza sativa) are sprayed with a preparation of the active ingredient of the desired concentration and the plants are infested with the brown planthopper (Nilaparvata lugens).
After 4 days mortality in % is determined. 100% means all planthoppers have been killed and 0% means none of the planthoppers have been killed.

[11] = test system: Rhipicephalus (Boophilus) microplus larvae (strain Parkhurst, resistant against synthetic pyrethroids); assay: Rhipicephalus (Boophilus) microplus in-vitro contact test, larval cattle tick; conditions: after 48 hours, read-out: activity (efficacy: larvae dead or moribund); for pest or weed control at 1 µg/cm2, 100 g/ha: application rate 1 μg/cm^2 (=100 g/ha); for pest or weed control at 5 µg/cm2, 500 g/ha: application rate 5 μg/cm^2 (=500 g/ha)
How it was run: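 Pyrethroid-resistant Parkhurst larvae, 20–50 per tube, were kept 48 h at 27 °C and 85% relative humidity in glass tubes whose inner walls carried a dried acetone film of compound (900 ppm giving 5 μg/cm^2). Dead or moribund larvae, judged by loss of negative geotactic behavior, set percent efficacy.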

[12] = test system: adult brown dog ticks (Rhipicephalus sanguineus); assay: Rhipicephalus sanguineus in-vitro contact test, adult brown dog ticks; conditions: application rate 5 μg/cm^2 (=500 g/ha), after 48 hours, read-out: activity (efficacy: ticks dead or moribund)
How it was run: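 Efficacy is % of adult ticks dead or moribund 48 h after confinement at room temperature in tubes wall-coated from acetone (5 μg/cm² at 900 ppm). Scoring by heat challenge at 45-50 °C up to 5 min; immotile or uncoordinated ticks failing to climb count as affected.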

[13] = test system: adult cat fleas (Ctenocephalides felis); assay: Ctenocephalides felis in-vitro contact test, adult cat flea; conditions: application rate 5 μg/cm^2 (=500 g/ha), after 48 hours, read-out: activity (efficacy: fleas dead or moribund)
How it was run: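 After 48 h of room-temperature exposure in tubes whose walls carried dried compound residue (5 μg/cm^2, from 900 ppm acetone solution), adult cat fleas (5-10 per tube) were heat-challenged at 45-50° C up to 5 min. Fleas unable to climb away were counted dead or moribund, expressed as % efficacy.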

[14] = test system: adult mosquitoes Aedes aegypti strain MONHEIM; assay: Aedes aegypti test (AEDSAE surface treatment & contact assay); conditions: 24 hours after contact, read-out: efficacy (mortality); for mortality at 20 mg/m2: surface concentration 20 mg/m^2, exposure 30 minutes
How it was run: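 Compound in acetone (2 mg/ml) with 2000 ppm RME dried onto glazed tile; adults exposed to the treated surface for 30 min. Percent mortality scored 24 h after contact.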

[15] = surface concentration 4 mg/m^2, exposure 30 minutes

SMILES | mortality at 20 mg/m2 [1] [%] | pest or weed control at 32 µg/disc, 100 g/ha [6] [%] | mortality at 500 g/ha [7] [%] | mortality at 100 g/ha [8] [%] | mortality at 4 ppm [9] [%] | pest or weed control at 1 µg/cm2, 100 g/ha [11] [%] | pest or weed control at 5 µg/cm2, 500 g/ha [11] [%] | pest or weed control at 5 µg/cm2, 500 g/ha [12] [%] | mortality at 500 g/ha [10] [%] | pest or weed control at 5 µg/cm2 [13] [%] | mortality at 100 g/ha [4] [%] | further results
CC(NC(=O)c1cc(C(F)(F)F)cc(C(F)(F)F)c1)c1nc(C(F)F)nn1-c1ccc(C(=O)N2CCOCC2)cn1 (racemic) [Example I-83, N-[1-[5-(Difluoromethyl)-2-[5-(morpholine-4-carbonyl)-2-pyridyl]-1,2,4-triazol-3-yl]ethyl]-3,5-bis(trifluoromethyl)benzamide] | 80 to 100 | 100 | 100 | 100 | 100 |  |  |  |  |  |  | mortality at 20 mg/m2 [2]: 80 to 100%; pest or weed control at 0.004 mg [3]: 100%; mortality at 500 g/ha [4]: 90%; mortality at 100 ppm [5]: 100%; pest or weed control at 160 µg/disc, 500 g/ha ([6]; application rate 500 g/ha (=160 μg/well)): 100%; mortality at 20 ppm [9]: 100%
C[C@H](NC(=O)c1cc(Cl)cc(C(F)(F)F)c1)c1ncnn1-c1ccc(N2CCCC2=O)cn1 [Example I-54] |  |  |  |  | 100 |  |  |  |  |  |  | mortality at 100 g/ha [10]: 100%
C[C@H](NC(=O)c1cc(C(F)(F)F)cc(C(F)(F)F)c1)c1ncnn1-c1ccc(C(=O)N2CC(C)(C)OC(C)(C)C2)cn1 [Example I-77] | 80 to 100 | 100 | 100 | 100 |  | 100 | 100 | 80 | 100 | 100 |  | 
Cc1nc([C@H](C)NC(=O)c2cc(C(F)(F)F)cc(C(F)(F)F)c2)n(-c2ccc(C(=O)N3CC(C)(C)OC(C)(C)C3)cn2)n1 [Example I-78] |  |  | 100 | 100 |  | 100 | 100 | 100 | 100 |  |  | 
C[C@H](NC(=O)c1cc(C(F)(F)F)cc(C(F)(F)F)c1)c1ncnn1-c1ccc(C(=O)N2CC(=O)NC(=O)C2)cn1 [Example I-80] |  |  | 100 |  |  |  |  |  | 90 |  |  | 
C[C@H](NC(=O)c1cc(C(F)(F)F)cc(S(C)(=O)=O)c1)c1ncnn1-c1ccc(C(=O)N2CCOCC2)cn1 [Example I-102] |  | 100 |  | 100 | 100 |  |  |  |  | 80 | 90 | mortality at 4 mg/m2 [14, 15]: 80 to 100%; mortality at 20 mg/m2 [14]: 80 to 100%; mortality at 100 g/ha [10]: 90%; mortality at 100 g/ha [7]: 100%
C[C@H](NC(=O)c1cc(Cl)cc(S(C)(=O)=O)c1)c1ncnn1-c1ccc(C(=O)N2C[C@H](C)O[C@@H](C)C2)cn1 [Example I-122] |  |  | 100 |  | 100 |  |  |  | 90 | 80 |  | mortality at 500 g/ha [4]: 90%; mortality at 100 g/ha [7]: 90%
CCc1nc([C@H](C)NC(=O)c2cc(C(F)(F)F)cc(C(F)(F)F)c2)n(-c2ccc(C(=O)N3C[C@@H](C)O[C@@H](C)C3)cn2)n1 [Example I-130] | 80 to 100 | 100 | 100 | 100 |  | 100 | 100 | 100 | 100 | 100 | 90 | mortality at 4 mg/m2 [1, 15]: 80 to 100%
CCc1nc([C@H](C)NC(=O)c2cc(C(F)(F)F)cc(C(F)(F)F)c2)n(-c2ccc(C(=O)N3CCOCC3)cn2)n1 [Example I-131] | 80 to 100 | 100 | 100 | 100 |  | 100 | 100 | 100 | 100 | 100 | 90 | mortality at 20 mg/m2 [14]: 80 to 100%
CCc1nc([C@H](C)NC(=O)c2cc(Br)cc(OC(F)(F)F)c2)n(-c2ccc(C(=O)N3CCOCC3)cn2)n1 [Example I-134] |  | 100 | 100 | 100 |  |  |  |  | 100 |  | 90 | 
Cc1nc([C@H](C)NC(=O)c2cc(C(F)(F)F)cc(C(F)(F)F)c2)n(-c2cnc(C(=O)N3C[C@@H](C)O[C@@H](C)C3)cn2)n1 [Example I-138] | 80 to 100 | 100 | 100 | 100 |  | 100 | 100 | 100 | 100 | 100 | 90 | 
C[C@H](NC(=O)c1cc(C(F)(F)F)cc(C(F)(F)F)c1)c1ncnn1-c1ncc(C(=O)N2CCCC2)cn1 [Example I-147] |  | 100 |  | 100 |  |  |  |  | 90 |  | 100 | 
